Columns and labels:
[1] = system: mice; test: Hole board test in mice; format: in vivo; conditions: long-term (23 days); for Number of Head dips / Time of head dipping: 5 min
Description: Hole board test, an animal model of anxiety established by Boissie, et al (1962), was performed in mice.
1) Experimental device: a transparent Perspex box (40×40×27 cm) which had four holes (3 cm in diameter, 1.8 cm in depth) in the floor. The distance of each hole center to its closest wall is 10 cm.
2) Experimental method: Male Kunming mice weighing 20-25 g. The mice were intragastrically administered with YL-0911 or vehicle (distilled water). After 23 days, the mice were placed at center of the hole board with their backs facing to the observer. A head dip was scored if the animal's head dipped into the hole at least up to eye level The latency to the first head-dip, the number of head-dips and the time spent in head-dipping were recorded for 5 min.

[2] = molecular target: T1, 5-HT1A receptor (Rattus norvegicus, UniProt P19327); test: Competitive binding test of YL-0911 and positive drugs to 5-HT1A receptor (extracted from hippocampi); conditions: [3H]-8-OH-DPAT 0.25 nM
T1 construct: the content of 5-HT1A receptor extracted from rat hippocampi was 5.5 mg/ml; from tissue; host or cells: Wistar rat hippocampus, membrane preparation
T1 sequence (P19327 1-422): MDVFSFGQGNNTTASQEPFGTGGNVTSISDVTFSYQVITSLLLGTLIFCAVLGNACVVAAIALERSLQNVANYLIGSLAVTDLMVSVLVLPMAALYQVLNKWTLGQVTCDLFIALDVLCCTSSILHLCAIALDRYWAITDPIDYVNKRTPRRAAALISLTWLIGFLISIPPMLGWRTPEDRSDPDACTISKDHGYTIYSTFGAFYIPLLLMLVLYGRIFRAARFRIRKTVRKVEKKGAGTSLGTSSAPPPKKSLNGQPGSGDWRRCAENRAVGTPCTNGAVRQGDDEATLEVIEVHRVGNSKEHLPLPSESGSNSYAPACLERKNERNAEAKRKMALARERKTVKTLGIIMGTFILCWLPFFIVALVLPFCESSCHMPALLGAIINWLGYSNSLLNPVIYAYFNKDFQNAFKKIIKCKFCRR
Description: 1) Test tubes were placed in 37° C. reactor.
3) To the test tubes, 20 μl of the drug to be tested (selecting a concentration ranging from 10^−3-10^−10M) was added.
IC50 and Kd were used to calculate Ki value.

[3] = system: mice; test: Tail suspension test in mice; format: in vivo; conditions: acute, 1 h before test
Text: 2.1.2 Tail Suspension Test in Mice
Tail suspension test in mice is an acute behavioral despair model established by Stem, et al. (1985).
1) Experimental device: an experimental frame with spacing boards which dividing the experimental frame into 2 experimental chambers (20×25×30 cm). A clamp is mounted on a through cross rod in the chamber for clamping mice tail so as to suspend the mice.
2) Experimental method: Male Kunming mice weighing 20-25 g. The mice were intragastrically administered with YL-0911 or vehicle (distilled water). After 1 h, wrap adhesive tape around the mouse's tail in position three quarters of the distance from the base of the tail and then suspend the animals by passing the suspension hook through the adhesive tape 5 cm above the table. The duration of immobility in the last 4 min of total 6 min test was recorded.

Ki [2]: 0.44 ± 0.32 nM | melting point: 216 to 218 °C
Compound: O=c1ccccn1CC1(O)CCN(Cc2ccccc2)CC1 [Compound 1, 1-[(1-benzyl-4-hydroxypiperidin-4-yl)-methyl]-pyridin-2(1H)-one]
the latency to the first head-dip ([1]; 0.625 mg/kg p.o.): 62.60 ± 16.75 s | Number of Head dips ([1]; 0.625 mg/kg p.o.): 6.40 ± 0.97 | Time of head dipping ([1]; 0.625 mg/kg p.o.): 3.75 ± 0.91 s | the latency to the first head-dip ([1]; 1.25 mg/kg p.o.): 33.00 ± 6.34 s | Number of Head dips ([1]; 1.25 mg/kg p.o.): 10.60 ± 1.17 | Time of head dipping ([1]; 1.25 mg/kg p.o.): 6.86 ± 0.55 s | the latency to the first head-dip ([1]; 5 mg/kg p.o.): 31.60 ± 6.88 s | Number of Head dips ([1]; 5 mg/kg p.o.): 7.40 ± 1.00 | Time of head dipping ([1]; 5 mg/kg p.o.): 5.95 ± 0.93 s | Immobility time (s), tail suspension test ([3]; 0.625 mg/kg p.o.): 105.4 ± 24.6 s | Immobility time (s), tail suspension test ([3]; 1.25 mg/kg p.o.): 93.8 ± 38.7 s | Immobility time (s), tail suspension test ([3]; 5 mg/kg p.o.): 98.8 ± 45.3 s
